According to patent publication US20240188561A1, “ADDITIVES FOR ENHANCING THE PESTICIDAL EFFECTIVENESS OF PESTICIDAL MICROORGANISMS” (priority 2021, published 2024):

Each molecule was assayed on Powdery Mildew (Podosphaera xanthii) (assay: Spray trial on pumpkin plants, Powdery Mildew infection). Details: in words.
Format: in vivo
Protocol: Eight solutions were prepared as described in Table 5a. These solutions were sprayed on pumpkin plants showing no signs of Powdery Mildew (Podosphaera xanthii). […] Six of the solutions included methyl soyate.
Four applications were made over a month to the same pumpkin plants. At the end of the month, the infection rates of Powdery Mildew were evaluated by comparing to untreated pumpkin plants.

Molecule | Control of Powdery Mildew (lower %-Infection) when additive was added to Serifel Biofungicide spray solutions
Soya fatty acid methyl ester [ii-3] | improved control

What follows are molecules tested on Pseudomonas fluorescens (assay: Additive compatibility with microbial growth (growth slope by OD 620 nm)). Details: additive 0.01-5 %, exposed 4 hours at 16° C., then tryptic soy broth 30° C., slope compared to 0% sample.
Format: cell-based

Molecule | Influence of additive on microbial growth slope (compatibility), Pseudomonas fluorescens
Olleyl-Cetyl alcohol (80% Oleyl) [xvi-2] | N
Sorbitan trioleate POE 20 [xii-4] | S
Tridecyl alcohol POE 10 phosphate ester [xix-1] | S
C8-C10 fatty alcohol [xvi-1] | S
Sorbitan monooleate [xii-1] | E (E represents an Enhancing result)
Castor Oil POE 16 [vi-3] | N
C8-C10 alkylpolyglycoside [iv-1] | N
C12-C18 fatty acid methyl ester [ii-2] | N
CC(O)C(=O)N(C)C (stereo not shown) [xv-1, Dimethyl lactamide] | N
2-propylheptanol Alkoxylate with 5 moles EO [xi-4] | S
C8-C10 dimethyl amide [xv-2] | S
2-propylheptanol POE 5 [xi-3] | S
C12-C16 alkylpolyglycoside [iv-2] | N
Soybean Oil POE 10 [vi-1] | E (E represents an Enhancing result)
Isodecyl alcohol POE6 phosphate ester [xix-3] | S
Tridecyl alcohol POE 3 [xi-1] | S

Molecule | Influence of additive on microbial growth slope (compatibility), Pseudomonas fluorescens
Sodium Tallowate [xviii-2] | S
Tallow amine POE15 [xiii-1] | E (E represents an Enhancing result)
Olleyl-Cetyl alcohol (90% Oleyl) [xvi-3] | S
Soya fatty acid methyl ester [ii-3] | N
Tridecyl alcohol POE 9 [xi-2] | S
PEG 400 monooleate [v-2] | S
Sorbitan monolaurate POE 20 [xii-2] | S
Magnesium Oleate [xviii-1] | S
Butyl alcohol POP 31 POE 31 [vii-7] | N
PEG 400 monolaurate [v-1] | S
2-propylheptanol Alkoxylate with 7 moles EO [xi-5] | S
CCCCCCCC/C=C\CCCCCCCC(=O)OC [ii-4, Oleic acid methyl ester] | N
Soybean Oil POE 30 [vi-2] | N
Sorbitan monooleate POE 20 [xii-3] | N
Sodium Lauryl ether sulfate [xvii-1] | S

Each molecule was assayed on Bacillus firmus in the same assay as above. Details: additive 0.01-5 %, exposed 4 hours at 16° C., then tryptic soy broth 30° C., slope compared to 0% sample.
Format: cell-based

Molecule | Influence of additive on microbial growth slope (compatibility), Bacillus firmus
Olleyl-Cetyl alcohol (80% Oleyl) [xvi-2] | S
Sorbitan trioleate POE 20 [xii-4] | S
Tridecyl alcohol POE 10 phosphate ester [xix-1] | S
C8-C10 fatty alcohol [xvi-1] | S
Sorbitan monooleate [xii-1] | S
Castor Oil POE 16 [vi-3] | N
C8-C10 alkylpolyglycoside [iv-1] | N
C12-C18 fatty acid methyl ester [ii-2] | S
CC(O)C(=O)N(C)C (stereo not shown) [xv-1, Dimethyl lactamide] | N
2-propylheptanol Alkoxylate with 5 moles EO [xi-4] | S
C8-C10 dimethyl amide [xv-2] | S
2-propylheptanol POE 5 [xi-3] | S
C12-C16 alkylpolyglycoside [iv-2] | S
Castor Oil POE 40 [vi-4] | N
Soybean Oil POE 10 [vi-1] | S
Isodecyl alcohol POE6 phosphate ester [xix-3] | S

Molecule | Influence of additive on microbial growth slope (compatibility), Bacillus firmus
Tridecyl alcohol POE 3 [xi-1] | S
Tallow amine POE15 [xiii-1] | S
Olleyl-Cetyl alcohol (90% Oleyl) [xvi-3] | S
Soya fatty acid methyl ester [ii-3] | N
Tridecyl alcohol POE 9 [xi-2] | S
Tallow amine POE20 [xiii-2] | S
Sorbitan monolaurate POE 20 [xii-2] | S
Magnesium Oleate [xviii-1] | S
Butyl alcohol POP 31 POE 31 [vii-7] | N
C12-C14 dimethyl amide [xv-3] | S
2-propylheptanol Alkoxylate with 7 moles EO [xi-5] | S
CCCCCCCC/C=C\CCCCCCCC(=O)OC [ii-4, Oleic acid methyl ester] | N
Soybean Oil POE 30 [vi-2] | N
Sorbitan monooleate POE 20 [xii-3] | S
Sodium Lauryl ether sulfate [xvii-1] | S

What follows are molecules tested on Bacillus subtilis in the same assay as above. Details: additive 0.01-5 %, exposed 4 hours at 16° C., then tryptic soy broth 30° C., slope compared to 0% sample.
Format: cell-based

Molecule | Influence of additive on microbial growth slope (compatibility), Bacillus subtilis
Olleyl-Cetyl alcohol (80% Oleyl) [xvi-2] | N
Sorbitan trioleate POE 20 [xii-4] | N
Tridecyl alcohol POE 10 phosphate ester [xix-1] | S
C8-C10 fatty alcohol [xvi-1] | S
Sorbitan monooleate [xii-1] | S
Castor Oil POE 16 [vi-3] | N
C8-C10 alkylpolyglycoside [iv-1] | N
C12-C18 fatty acid methyl ester [ii-2] | N
CC(O)C(=O)N(C)C (stereo not shown) [xv-1, Dimethyl lactamide] | S
2-propylheptanol Alkoxylate with 5 moles EO [xi-4] | S
C8-C10 dimethyl amide [xv-2] | S
2-propylheptanol POE 5 [xi-3] | S
C12-C16 alkylpolyglycoside [iv-2] | S
Castor Oil POE 40 [vi-4] | N
Dibutyl Naphthalene Sulfonate, Sodium [viii-1] | E (E represents an Enhancing result)
Soybean Oil POE 10 [vi-1] | N
Isodecyl alcohol POE6 phosphate ester [xix-3] | S

Molecule | Influence of additive on microbial growth slope (compatibility), Bacillus subtilis
Tridecyl alcohol POE 3 [xi-1] | S
Tallow amine POE15 [xiii-1] | S
Olleyl-Cetyl alcohol (90% Oleyl) [xvi-3] | S
Soya fatty acid methyl ester [ii-3] | N
Tridecyl alcohol POE 9 [xi-2] | S
Tallow amine POE20 [xiii-2] | S
PEG 400 monooleate [v-2] | N
Sorbitan monolaurate POE 20 [xii-2] | S
Magnesium Oleate [xviii-1] | S
Butyl alcohol POP 31 POE 31 [vii-7] | N
C12-C14 dimethyl amide [xv-3] | S
PEG 400 monolaurate [v-1] | N
2-propylheptanol Alkoxylate with 7 moles EO [xi-5] | S
CCCCCCCC/C=C\CCCCCCCC(=O)OC [ii-4, Oleic acid methyl ester] | N
Soybean Oil POE 30 [vi-2] | S
Sorbitan monooleate POE 20 [xii-3] | N
Sodium Lauryl ether sulfate [xvii-1] | S

What follows are molecules tested on Bacillus amyloliquefaciens in the same assay as above. Details: additive 0.01-5 %, exposed 4 hours at 16° C., then tryptic soy broth 30° C., slope compared to 0% sample.
Format: cell-based

Molecule | Influence of additive on microbial growth slope (compatibility), Bacillus amyloliquefaciens
Olleyl-Cetyl alcohol (80% Oleyl) [xvi-2] | N
Sorbitan trioleate POE 20 [xii-4] | S
Tridecyl alcohol POE 10 phosphate ester [xix-1] | S
C8-C10 fatty alcohol [xvi-1] | S
Sorbitan monooleate [xii-1] | S
Castor Oil POE 16 [vi-3] | N
C8-C10 alkylpolyglycoside [iv-1] | N
C12-C18 fatty acid methyl ester [ii-2] | N
CC(O)C(=O)N(C)C (stereo not shown) [xv-1, Dimethyl lactamide] | S
2-propylheptanol Alkoxylate with 5 moles EO [xi-4] | S
C8-C10 dimethyl amide [xv-2] | S
2-propylheptanol POE 5 [xi-3] | S
C12-C16 alkylpolyglycoside [iv-2] | S
Castor Oil POE 40 [vi-4] | N
Dibutyl Naphthalene Sulfonate, Sodium [viii-1] | E (E represents an Enhancing result)
Soybean Oil POE 10 [vi-1] | N
Isodecyl alcohol POE6 phosphate ester [xix-3] | S

Molecule | Influence of additive on microbial growth slope (compatibility), Bacillus amyloliquefaciens
Tridecyl alcohol POE 3 [xi-1] | S
Tallow amine POE15 [xiii-1] | S
Olleyl-Cetyl alcohol (90% Oleyl) [xvi-3] | S
Soya fatty acid methyl ester [ii-3] | E (E represents an Enhancing result)
Tridecyl alcohol POE 9 [xi-2] | S
Tallow amine POE20 [xiii-2] | S
PEG 400 monooleate [v-2] | N
Sorbitan monolaurate POE 20 [xii-2] | S
Butyl alcohol POP 31 POE 31 [vii-7] | N
C12-C14 dimethyl amide [xv-3] | S
PEG 400 monolaurate [v-1] | N
2-propylheptanol Alkoxylate with 7 moles EO [xi-5] | S
CCCCCCCC/C=C\CCCCCCCC(=O)OC [ii-4, Oleic acid methyl ester] | E (E represents an Enhancing result)
Soybean Oil POE 30 [vi-2] | S
Sorbitan monooleate POE 20 [xii-3] | N
Sodium Lauryl ether sulfate [xvii-1] | S
